Columns and labels:
[1] = target: T1, RSV's fusion (F) protein (Human respiratory syncytial virus A, UniProt P03420); assay: Anti-F antibody binding to treated RSV (ELISA); conditions: 100 μM, 4 hours at 40° C.
T1 construct: Sucrose gradient-purified RSV was treated with compound VI and compound X; host or cells: sucrose gradient-purified RSV virions
Experimental: Controls included mock-treated RSV incubated for 4 hours at 40° C. and non-treated virus kept at 4°° C. ELISA assay was performed according procedure described by Schmidt et al, J Virol. […] Eight serial 1:2 dilutions in PBS were plated (50 µl/well) in triplicates into 96-well plates, and incubated overnight at 4° C. The wells were washed with PBS and blocked with PBS/1% BSA. Anti-protein F antibody was added, and the mixture was incubated for 2 h, followed by washings and the addition of anti-mouse IgG HRP conjugate. After another round of washing, TMB substrate and sulfuric acid were added and readings were conducted using ELISA Reader SPECTRAmax PLUS (Molecular Devices,

[2] = tested on: S. epidermidis; assay: Bacterial inactivation in Ringer's solution, colony agar plate count; format: cell-based; conditions: 100 μM, RT, 1 h treatment
Experimental: (§1) A panel of G+F and G-bacteria were inactivated in their respective growth medium using compound VI, compound X, and compound XIV. All cells were grown in corresponding media to middle log phase, collected by centrifugation, re-suspended in Ringer's solution (RS), and treated at RT with 100 μM of compound VI, compound X, and compound XIV, which were added to the suspension as 100× concentrate in RS. Controls received RS only. At the end of the incubation, unreacted compound VI, compound X, and compound XIV were neutralized with 10 mM sodium thiophosphate during incubation at RT for 30 min. The viable cells were enumerated using serial dilutions by standard colony agar plate count. Table 1 summarizes the typical results of 1 h treatment of E. coli, P. fluorescens, Y. enterocolitica, B. cereus, S. aureus, and S. epidermidis with compound VI, compound X, and compound XIV.

[3] = tested on: Y. enterocolitica; assay: as above; format: cell-based; conditions: 100 μM, RT, 1 h treatment
Experimental: as §1

[4] = tested on: Bovine viral diarrhea virus (BVDV); assay: Viral inactivation in RS, endpoint dilution assay; format: cell-based; conditions: 100 μM, RT
Experimental: (§2) The porcine parvovirus (PPV) was inactivated by using compound VI and compound X. Treatments were conducted in RS (pH 6.9) at RT with 100 μM using compound VI and compound X and 10% virus spike. Residual compounds were quenched by incubation with 10 mM Na2S2O3 for 2 hours at RT. Virus titers, expressed as Log10TCID50/mL, were determined using the standard endpoint dilution assay with permissive to PPV porcine testis cells. After the incubation of indicator cells for 6 days, infected wells were counted under microscope by visual inspection. To confirm the results, secondary infection using conditioned media from the first plate wells as samples was conducted.
Bovine viral diarrhea virus (BVDV) was inactivated by using compound VI and compound X. The protocol used for […] except the indicator cells, which were bovine turbinate cells.

[5] = tested on: porcine parvovirus (PPV); assay: Viral inactivation in RS, endpoint dilution assay; format: cell-based; conditions: 100 μM, RT
Experimental: as §2

[6] = Neutralization and covalent sequestration of compound VI by nucleophile-functionalized solid phase agents (LCMS); format: physicochemical
Experimental: Sulfonylchloride functionalized divinylbenzene crosslinked polystyrene resin (Sigma-Aldrich Cat. no. 498211-5g) was mixed with 5 ml 2M sodium hydrogen sulfide solution (prepared by saturation of sodium sulfide nonahydrate solution in water with hydrogen sulfide) under argon. The mixture was sonicated for ca. 3 min and then stirred at 55° C. for 4 h. After that the resin was filtered and washed three times with deaerated water, there times with deaerated methanol, and two times with deaerated ether. The resin was dried under stream of argon and then under vacuum. Obtained, 1.039 g dry resin (compound XXVIII), thiosulfonate functionalized polystyrene/divinylbenzene resin. An aliquot of compound XXVIII was added to a solution of compound VI, 100 μM in PBS.
Aminoethyl groups functionalized methacrylate resin (Purolite Ltd, Llantrisant, Wales, UK, Product No. D6195, trade name Chromalite MAM2, 0.5 mmol amino groups per ml wet resin, 68% moisture), 300 mg, was dried by three evaporation from 2 ml dry N,N-dimethylformamide under vacuum at 35° C. […] The load of mercapto groups on the product, compound XXX, was determined using the Elman's procedure (Riener, C. K.; Kada, G.; Gruber, H. J., Anal. Bioanal. Chem., 2002, 373, 266-76) and was 0.21 mmol per gram of wet resin. […]
Tentagel S NH2 resin, 200 mg (Rapp Polymere GmbH, Tuebingen, Germany, product No. S30132, divinylbenzene cross-linked polystyrene resin grafted with amino group terminated polyethylene glycol) was swollen for couple of hours in 5 ml dry N,N-dimethylformamide and then the excess of solvent was pipetted off Benzotriazol-1-yl-oxytripyrrolidinophosphonium hexafluorophosphate, 151 mg, 2-(4-(triphenylmethylthio)phenyl)acetic acid, 119 mg, and anhydrous 1-hydroxybenzotriazole, 44 mg, were dissolved in 1.2 mL dry N,N-dimethylformamide. […] The mercapto groups load was determined using the Elman's procedure and was 0.12 mmol per gram of dry resin. […]

T1 sequence (P03420 137-574): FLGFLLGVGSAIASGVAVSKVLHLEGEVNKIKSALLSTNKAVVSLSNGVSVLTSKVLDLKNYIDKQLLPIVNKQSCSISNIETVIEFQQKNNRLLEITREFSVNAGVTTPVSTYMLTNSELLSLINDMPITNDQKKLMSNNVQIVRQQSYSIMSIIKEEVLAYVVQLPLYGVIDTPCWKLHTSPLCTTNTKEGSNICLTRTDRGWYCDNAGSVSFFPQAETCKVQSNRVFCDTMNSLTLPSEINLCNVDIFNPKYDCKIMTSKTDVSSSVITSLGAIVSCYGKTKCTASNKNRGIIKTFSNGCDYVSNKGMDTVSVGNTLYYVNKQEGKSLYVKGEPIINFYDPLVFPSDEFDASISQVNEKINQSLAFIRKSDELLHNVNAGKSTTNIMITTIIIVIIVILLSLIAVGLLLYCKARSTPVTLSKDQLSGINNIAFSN
T1 sequence (P03420 26-109): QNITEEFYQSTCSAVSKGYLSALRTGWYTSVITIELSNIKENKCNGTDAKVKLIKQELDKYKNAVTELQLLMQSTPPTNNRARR

| SMILES | recognition of the F protein by monoclonal antibody after treatment [1] | Titer [2] [Log10CFU/mL] | Titer [3] [Log10CFU/mL] | BVDV titer ([4]; incubation 1 h) [Log10TCID50/mL] | BVDV titer ([4]; incubation 3 h) [Log10TCID50/mL] | BVDV titer ([4]; incubation 6 h) | PPV titer ([5]; RS pH 6.9, incubation 1 h) [Log10TCID50/mL] | PPV titer ([5]; RS pH 6.9, incubation 3 h) [Log10TCID50/mL] | PPV titer ([5]; RS pH 6.9, incubation 6 h) | concentration of compound VI in the mixture ([6]; 100 μM in PBS with mercaptophenyl TentaGel S resin XXXII) | concentration of compound VI in the mixture ([6]; 100 μM in PBS with mercaptophenyl methacrylate resin XXX) | concentration of compound VI in the mixture ([6]; 100 μM in PBS with thiosulfonate functionalized resin XXVIII) |
| --- | --- | --- | --- | --- | --- | --- | --- | --- | --- | --- | --- | --- |
| CN(CCCCN(C)CCCN1CC1)CCCN(C)CCCN1CC1 [Compound X] | did not change the degree of recognition of the F protein | 7.32 | 4.85 | 3.88 | 2.94 | 0.84 Log10TCID50/mL | 3.09 | 2.72 | 0.78 Log10TCID50/mL | – | – | – |
| CN(CCCCN(C)CCCN1CC1)CCCN1CC1 [Compound VI, N^1,N^4-bis(3-(aziridin-1-yl)propyl)-N^1,N^4-dimethylbutane-1,4-diamine] | did not change the degree of recognition of the F protein | 8.11 | 6.72 | 3.27 | 1.30 | below the limit of detection and BLD | 2.95 | 0.85 | below the limit of detection and BLD | time dependent decreasing | time dependent decreasing | time dependent decreasing |
